Data on two molecules can be found in PMC6321291, “Synthesis, Biological Evaluation and Docking Studies of Benzoxazoles Derived from Thymoquinone” (Molecules, 2018).

Bounds are passed on as bounds.

Series [1] concerns HeLa (cervical carcinoma). Description: MTT assay, HeLa. Type of series: cell-based. As to conditions: Homo sapiens, 72 h. As to the method:
(§1) The tested compounds were dissolved in DMSO in five, 10-fold dilutions (0.01–100 µM). The cell lines HeLa (cervical carcinoma), SW620 (colorectal adenocarcinoma, metastatic), HepG2 (hepatocellular carcinoma), CFPAC-1 (ductal pancreatic adenocarcinoma), and WI38 (human lung fibroblast cell line), were cultured as monolayers and maintained in Dulbecco’s modified Eagle medium (DMEM) supplemented with 10% fetal bovine serum (FBS), 2 mM L-glutamine, 100 U mL^−1 penicillin and 100 μg mL^−1 streptomycin in a humidified atmosphere with 5% CO2 at 37 °C.
(§2) The MTT assay was used for evaluation of effects of tested compounds on viability of carcinoma and control cell lines. About 5000 cells per well were seeded onto a series of standard 96-well plates on day 0. Test agents were then added and incubated for further 72 h. Working dilutions of tested compounds were freshly prepared in the growth medium, on the day of testing. The solvent (DMSO) was also tested for eventual inhibitory activity by adjusting its concentration to be the same as in the working concentrations (DMSO concentration never exceeded 0.1%). After 72 h of incubation, the cell growth rate was evaluated by performing the MTT assay: experimentally determined absorbance values were transformed into a cell percentage growth (PG) using the formulas proposed by NIH and described previously. This method directly relies on control cells number at the day of assay because it compares the growth of treated cells with the growth of untreated cells in control wells on the same plate, the results are therefore a percentile difference from the calculated expected value.
(§3) If, however, all of the tested concentrations produce PGs exceeding the respective reference level of effect (e.g., PG value of 50) for a given cell line, the highest tested concentration is assigned as the default value (in the screening data report that default value is preceded by a “>” sign). Each test point was performed in quadruplicate in three individual experiments. The results were statistically analyzed (Analysis of variance (ANOVA), Tukey post-hoc test at p < 0.05). Finally, the effects of the tested substances were evaluated by plotting the mean percentage growth for each cell type in comparison to control on dose response graphs.

Series [2] concerns phospho (Tyr 1135) -IGF1 Receptor β. Description: Western blot, IGF1 Receptor β activated form in HepG2 cells. Format: cell-based, human. As to conditions: IC50 concentration. As to the method:
(§4) Protein lysates were lysed in the buffer 50 mM Tris HCl (pH 8), 150 mM NaCl, 1% NP-40, 0.5% sodium deoxycholate, 0.1% SDS and protease and phosphatase inhibitor cocktail (Roche, Basel, Switzerland). A total of 50 μg of proteins were resolved on 10% SDS polyacrylamide gels by use of Mini-protean cell (Bio-Rad, Hercules, CA, USA). Membranes were incubated with primary antibodies against phospho (Tyr 1135) -IGF1 Receptor β (1:1000, rabbit mAb, Cell Signalling Technology, Danvers, MA, USA), phospho (Ser 473) Akt (1:1000, rabbit mAb, Cell Signalling Technology) and α tubulin (1:1000, mouse mAb, Sigma Aldrich) at 4 °C overnight. Secondary antibody linked to anti-mouse was used at 1:1000 (Dako, Santa Clara, CA, USA) and to anti-rabbit at 1:1000 (Dako). Signals were visualized by Western Lightening Chemiluminescence Reagent Plus Kit (Perkin Elmer, USA) on the ImageQuant LAS500 (GE Healthcare, Chicago, IL, USA). Signal intensities of particular bands were normalized with the intensity of the loading control α tubulin and compared in Quantity One software (Bio-Rad). The values are expressed as average value of three independent experiments ± standard error of the mean. Statistical analysis was performed in Microsoft Excel (Microsoft Corporation, Redmond, WA, USA) by using the ANOVA (p < 0.05).

The test system of series [3] is phospho (Ser 473) Akt. Description: Western blot, pAkt in HeLa cells. Format: cell-based, human. Particulars: IC50 concentration. How it is done:
as §4

Series [4] in a line: MTT assay, WI38 healthy control. Type of series: cell-based. Particulars: WI38 human lung fibroblast cells, WI38 healthy control human fibroblast cell line. As to the method: as §1, §2, §3
Series [5] relates to phospho (Ser 473) Akt. Description: Western blot, pAkt in HepG2 cells. Format: cell-based, human. Particulars: IC50 concentration. How it is done: as §4
In series [6] the test system is HepG2 (hepatocellular carcinoma). In words: MTT assay, HepG2. Format: cell-based. Particulars: Homo sapiens, 72 h. How it is done: as §1, §2, §3
In series [7] the test system is CFPAC-1 (ductal pancreatic adenocarcinoma). Description: MTT assay, CFPAC-1. Format: cell-based. As to conditions: Homo sapiens, 72 h. How it is done: as §1, §2, §3
Series [8] deals with phospho (Tyr 1135) -IGF1 Receptor β. Description: Western blot, IGF1 Receptor β activated form in HeLa cells. Type of series: cell-based, human. Particulars: IC50 concentration, 24 and 48 h treatments. As to the method: as §4
The test system of series [9] is SW620 (colorectal adenocarcinoma, metastatic). Description: MTT assay, SW620. As to conditions: Homo sapiens, SW-620, 72 h. Type of series: cell-based. How it is done: as §1, §2, §3

On to `Cc1c(O)cc(C(C)C)c2oc(-c3ccc(F)cc3)nc12` [1f, 2-(4-Fluorophenyl)-4-methyl-7-isopropyl-1,3-benzoxazole-5-ol], for which the half-inhibitory concentration (IC50) in series [1] turned out to be 4.13 µM; in series [6] it was 9.36 µM; in [7], 33.8 µM; in series [9], 5.82 µM. The entries for the “IGF1 Receptor β activated form expression (western blot)” value in [2] (24 h treatment), in series [2] (48 h treatment) and in [8] were “significantly decreased expression”, “lack of signal” and “not detectable”, respectively. Moreover, in the series on phospho (Ser 473) Akt [3] (48 h treatment), the “pAkt levels (western blot)” value was “significantly decreased pAkt levels”. In series [4], this molecule yielded an IC50 at 72 h of 5.54 µM. Besides, the “inhibition of Akt phosphorylation (western blot)” value in the series on phospho (Ser 473) Akt [5] (24 h treatment) is on record as “significant effect”. The “pAkt signal (western blot)” value in the series on phospho (Ser 473) Akt [5] (48 h treatment) is listed as “absence of pAkt signal”.

`Cc1c(O)cc(C(C)C)c2oc(-c3ccc(Cl)cc3)nc12` [1e, 2-(4-Chlorophenyl)-4-methyl-7-isopropyl-1,3-benzoxazole-5-ol]: the IC50 in series [1] stood at 42.7 µM; in series [6], 39.5 µM; in series [7], 49.5 µM; in series [9], 79.9 µM. The “IGF1 Receptor β activated form expression (western blot)” value was “no significant changes” in series [2] (24 and 48 h treatments); “no significant changes” in series [8]. For the same molecule, the “inhibition of Akt phosphorylation (western blot)” value in the series with phospho (Ser 473) Akt [3] (24 h and 48 h) is “weak, time and concentration dependent inhibition”; in the series on phospho (Ser 473) Akt [5] (24 h and 48 h), “weak, time and concentration dependent inhibition”. This molecule returned an IC50 at 72 h in [4] above 100 µM.
